Data published in patent US20170165230A1, “USE OF GSK-3 INHIBITORS OR ACTIVATORS WHICH MODULATE PD-1 OR T-BET EXPRESSION TO MODULATE T CELL IMMUNITY” (priority 2014, published 2017).
“Also recorded” adds a separate entry of the source.

Columns and labels:
[1] = test system: PD-1 expression on T-cells; test: FACS of PD-1 expression induced by mixed lymphocyte reaction (C57Bl/6 + ICR/CD1 spleen T-cells, 60 hours); type: cell-based, mouse; settings: C57Bl/6 + ICR/CD1 co-culture, 60 hours (FIG. 5, 6)
Procedure: Cell flow cytometry with an acquisition of 10 000 events and data analysis using FlowJo).
C57BL/6J (B6) or outbred mouse CRI/CD1 T-cells were cultivated either alone or together at equal numbers (1×10^6/ml) for 60 hours in the presence or absence of the inhibitor followed by the harvesting of cells and FACs analysis for PD-1 using anti-PD-1-PE.

[2] = test system: PD-1 expression on T-cells; test: FACS of PD-1 expression on T-cells activated with anti-CD3 (2C11) for 48 hours; type: cell-based, mouse; settings: anti-CD3 (2C11) 48 hours; anti-CD3 increased MFI by 5 fold (FIG. 4)
Procedure: For anti-CD3 activation of T-cells, cells were stimulated with 5 μg/ml of anti-CD3 (2C11) in RPMI medium supplemented with 10% FCS, 2 mM glutamine, 50 uM 2-ME, 100 U/ml penicillin/streptomycin for 2-4 days using established methods.
(§1) The presence of cells was confirmed by using forward scatter height or side scatter height n the form of a dot and contor plots. […] Non-stained cells were used a control.
(§2) The chemical structures of each inhibitor are shown on bottom and right sides of figure.
as §2

Tbet transcription = test: qPCR of Tbet transcription in cells from EL4-OVA tumor-bearing OT-1 Tg mice; type: in vivo, mouse; settings: cells at day 12, mice 4-6 weeks (FIG. 9c)
Procedure: (§3) Single-strand cDNA was synthesized with an RT-PCR kit (Qiagen, Hilden, Germany) according to the manufacturer's instructions. Reverse transcription was performed using the RNA polymerase chain reaction (PCR) core kit (Applied Biosystems). Relative quantitative real-time PCR used SYBR green technology (Roche) on cDNA generated from the reverse transcription of purified RNA. After preamplification (95° C. for 2 min), the PCRs were amplified for 40 cycles (95° C. for 15 s and 60° C. for 60 s) in a sequence detection system (PE Prism 7000; Perkin-Elmer Applied Biosystems, USA). mRNA expression was normalized against GAPDH expression using the standard curve method. […]

[3] = test system: Interferon-γ1 (IFN-γ1) expression; test: FACS of IFN-γ1 expression on T-cells from EL4-OVA tumor-bearing mice treated in vivo; parameters: species or system mouse; settings: EL4-OVA model (FIG. 12b,c)
[4] = test system: CTLA-4 (CD152) expression; test: FACS of CTLA-4 (CD152) expression on T-cells from EL4-OVA tumor-bearing mice treated in vivo; parameters: species or system mouse; settings: EL4-OVA model (FIG. 12e)
[5] = test system: PD-1 expression on OT-1 T-cells; test: FACS of PD-1 surface expression on OT-1 T-cells stimulated in vitro by OVA peptide presented by EL-4 cells; type: cell-based, mouse; settings: OT-1 T-cells stimulated in vitro by OVA peptide presented by EL-4 cells (FIG. 1, 2, 3, 11)
Procedure: (§4) Non-stained cells were used a control.
(§5) Cells were then stained for FACs with APC conjugated anti-PD-1 (CD279) (a, b) or subjected to qPCR (c, d) as described in the Materials and Methods. Reverse transcription was performed using the RNA polymerase chain reaction (PCR). PCRs were amplified for 40 cycles in a sequence detection system. mRNA expression was normalized against GAPDH (Glyceraldehyde 3-phosphate dehydrogenase) expression using the standard curve method.
T-cells were incubated in the presence or absence of anti-PD-1 and then subjected to FACs or qPCR as described in the Materials and Methods.

PD-1 transcription = test: qPCR of PD-1 transcription in cells from EL4-OVA tumor-bearing OT-1 Tg mice; type: in vivo, mouse; settings: cells at day 12, mice 4-6 weeks (FIG. 9b)
Procedure: as §3

[6] = test system: Tbet (Tbx21) transcription; test: qPCR of Tbet transcription in OT-1 T-cells stimulated in vitro by OVA peptide/EL4; type: cell-based, mouse; settings: OT-1 T-cells stimulated by OVA peptide in vitro (FIG. 1d)
Procedure: Single-strand cDNA was synthesized with an RT-PCR kit (Qiagen, Hilden, Germany) according to the manufacturer's instructions. Reverse transcription was performed using the RNA polymerase chain reaction (PCR) core kit (Applied Biosystems). Relative quantitative real-time PCR used SYBR green technology (Roche) on cDNA generated from the reverse transcription of purified RNA. After preamplification (95° C. for 2 min), the PCRs were amplified for 40 cycles (95° C. for 15 s and 60° C. for 60 s) in a sequence detection system (PE Prism 7000; Perkin-Elmer Applied Biosystems, USA). mRNA expression was normalized against GAPDH expression using the standard curve method.
as §5

CD69 expression = test: FACS of CD69 expression on T-cells from EL4-OVA tumor-bearing mice treated in vivo; parameters: species or system mouse; settings: EL4-OVA model (FIG. 12d)
FasL expression [7] = test: FACS of FasL expression on OVA-activated OT-1 T-cells; type: cell-based, mouse
Source text: as §4

EL4 tumor cells = test: Intradermal EL4 / EL4-OVA tumor model in OT-1 Tg mice, tumor growth; type: in vivo, mouse; settings: OVA peptide 2, 5 and 10 ug, 10 days, young mice 4-6 weeks (FIG. 9a)
FasL expression [8] = test: FACS of FasL expression on T-cells from EL4-OVA tumor-bearing mice treated in vivo; parameters: species or system mouse; settings: negative control (FIG. 9d)
Source text: Tumors were visible after 1 wk and grew progressively in an encapsulated fashion. Mice were young at 4-6 weeks.

[9] = test system: panel of 24 other protein kinases; settings: selectivity; cited from earlier work
CD3 expression = test: FACS of CD3 expression on OVA-activated OT-1 T-cells; type: cell-based, mouse
Source text: as §1

[10] = test system: PD-1 expression on T-cells; test: FACS of PD-1 expression on T-cells from EL4-OVA tumor-bearing mice treated in vivo; parameters: species or system mouse; settings: EL4-OVA model
EL4-OVA target cells = test: Cytotoxicity assay: OT-1 CD8+ CTL killing of EL4-OVA target cells; settings: over a range of target:effector ratios (FIG. 1e,f)
Procedure: Cytotoxicity was assayed using a Cytotox 96 nonradioactive kit (Promega) following the instructions provided and using established methods. In brief, purified T cells were plated in 96-well plates at the effector/target ratios shown using 10^4 EL4 (ova peptide-pulsed) target cells per well in a final volume of 200 μl per well using RPMI lacking phenol red. Target cells per well were in a final volume of 200 μl per well using RPMI lacking phenol red. Lactate dehydrogenase release was assayed after 4 h incubation at 37° C. by removal of 50 μl supernatant from each well and incubation with substrate provided for 30 min and the absorbance read at 490 nm using the Thermomax plate reader (Molecular Devices). Percentage cytotoxicity=((experimental effectorspontaneous−target spontaneous)/(targetmaximum−target spontaneous))×100.

[11] = test system: PD-1 expression on T-cells; test: FACS of PD-1 expression on Con A activated T-cells; type: cell-based, mouse; settings: Con A activated T-cells (FIG. 5f)
Source text: Another mode of T-cell activation involves the stimulation by the lectin Concanavalin A (Con A) (e, f). ConA binds α-D-mannosyl and α-D-glucosyl residues (two hexoses differing only by the alcohol on carbon 2) in terminal position of ramified structures from B-Glycans (reach in α-mannose, or hybrid and bi-antennary glycanes complexes). Con A is known to induce cell agglutination/clustering and to stimulate mouse T-cell subsets giving rise to four functionally distinct T cell populations, including precursors to suppressor T-cell (Dwyer and Johnson 1981 Clin Exp Immunol 46 (2): 237-49). (e) contains the bright field images of Con A activated cells with cell clustering observed in the presence and absence of GSK-3 inhibitor TDZD-8.

[12] = Oral administration in drinking water, cell numbers and viability of spleen cells
Procedure: A stock solution 1 mg/ml was made in 1% DMSO. In one set, the 10 ug stock solution was diluted in 10 ml of water. […] By 48 hours, all water was consumed. Mice were then sacrificed, spleen extracted on 60 hours, cells were spun down at 1,800 for 3 min and ACK for removal of red blood cells (RBCs) treated for 2 min. Cells were then centrifuged at 1,800 rpm for 3 min and the absence of red blood cells was confirmed by the loss of red color in the cell pellet. […] An additional stimulant of 2 ug/ml ConA was also added at 48 hours of culture.
Ex vivo extracted cells were then cultured in 48 well tissue culture plates for 48 hours in the presence of anti-CD3 on plates (1 ug/ml).

[13] = test system: PD-1 expression on T-cells; test: Oral administration in drinking water, PD-1 expression on ex vivo anti-CD3 activated spleen cells; parameters: species or system mouse; settings: B6 mice
Procedure: . […] By 48 hours, all water was consumed. […] Non-stained cells were used a control.

COc1ccc(CNC(=O)Nc2ncc([N+](=O)[O-])s2)cc1 [AR-A014418, N-[(4-Methoxyphenyl)methyl]-N′-(5-nitro-2-thiazolyl)urea]
PD-1 expression induced in the MLR (FACS) [1]: inhibition of PD-1 expression | inhibition of anti-CD3 induced increase in PD-1 expression (MFI) [2]: > 45%

Cc1c[nH]c(-c2cnc(NCCNc3ccc(C#N)cn3)nc2-c2ccc(Cl)cc2Cl)n1.Cl [CHIR-99021, 6-(2-(4-(2,4-dichlorophenyl)-5-(4-methyl-1H-imidazol-2-yl)pyrimidin-2-ylamino)ethylamino)nicotinonitrile hydrochloride]
PD-1 expression induced in the MLR (FACS) [1]: inhibition of PD-1 expression | inhibition of anti-CD3 induced increase in PD-1 expression (MFI) [2]: > 55%

Cn1cc(C2=C(c3ccc(Cl)cc3Cl)C(=O)NC2=O)c2ccccc21 [SB216763, 3-(2,4-dichlorophenyl)-4-(1-methyl-1H-indol-3-yl)-1H-pyrrole-2,5-dione]
Tbet transcription in vivo (qPCR) (Tbet transcription): increased Tbet transcription | IFN-γ1 expression after in vivo administration (FACS) [3]: increase expression of IFN-γ1 on a greater number of cells | CTLA-4 expression after in vivo administration (FACS) [4]: minor increase | PD-1 surface expression (FACS profile) [5]: reduced PD-1 expression; also recorded: decreased the number of cells expressing PD-1 | PD-1 transcription in vivo (qPCR) (PD-1 transcription): inhibition of PD-1 transcription at all doses of OVA peptide | Tbet transcription (qPCR) [6]: increased Tbet transcription | CD69 expression after in vivo administration (FACS) (CD69 expression): minor increase in CD69 expression | FasL expression (FACS profile) (FasL expression [7]): unaltered FasL expression | tumor growth (EL4 tumor cells): prevented tumor growth at all concentrations of OVA peptide | FasL expression after in vivo administration (flow cytometry) (FasL expression [8]): absence of an effect on FasL expression | inhibition of a panel of 24 other protein kinases [9]: Neither compound significantly inhibited any member | CD3 expression (FACS profile) (CD3 expression): unaltered CD3 expression | PD-1 expression on T-cells after in vivo administration (flow cytometry) ([10]; mice 4-6 weeks (FIG. 9d)): PD-1 expression is reduced | PD-1 expression on T-cells after in vivo administration (FACS) ([10]; tumor elimination (FIG. 12a)): down-regulation of PD-1 | OT-1 CTL killing of EL4-OVA targets (CTL function) (EL4-OVA target cells): increase CTL function

Cn1sc(=O)n(Cc2ccccc2)c1=O [TDZD-8, 1,2,4-Thiadiazolidine-3,5-dione, 2-methyl-4-(phenylmethyl)]
fewer PD-1 positive cells [11]: > 45% | inhibition of anti-CD3 induced increase in PD-1 expression (MFI) [2]: > 50% | cell death / viability of cells in ex vivo culture after oral administration ([12]; 48 hours ex vivo culture (FIG. 13b,c)): no indication of cell death; also recorded: no obvious long-term effect on viability | spleen cell numbers, drug treated versus untreated mice ([12]; oral, 2 mg/kg, spleen extracted at 60 hours): No difference on cell numbers | percentage of T-cells expressing PD-1 after oral administration ([13]; drug in drinking water (FIG. 13e)): reduce the percentage of T-cells expressing PD-1 | PD-1 expression on ex vivo cells after oral administration (FACS) ([13]; drug in drinking water, ex vivo anti-CD3 48 hours (FIG. 13d)): lower expression of PD-1
